Measured values: US11541037B2, “Alkaloids from sponge, scaffolds for the inhibition of human immunodeficiency virus (HIV)” (King Abdullah University of Science and Technology, priority 2014, dated 2023)
≈ marks a conversion by molar mass, not a printed value. Entries after “also recorded” stand apart in the source; their conditions may differ. Where two headings read alike, the source gives them in different places.

Columns and labels:
[1] = test system: HIV-1; test: microbe, parasite or virus in culture; conditions: Human immunodeficiency virus 1, read-out: concentration giving 50% inhibition of HIV-1 (viral replication)
Protocol: (§1) The EASY-HIT assay (Kremb et al. [11]) is based on HIV-1 susceptible reporter cells (LC5-RIC) that contain a stably integrated fluorescent reporter gene that is activated upon successful HIV-1 infection and expression of the early viral proteins Rev and Tat. LC5-RIC were seeded into 96-well plates (μCLEAR-Plate Black; Greiner Bio-One, Kremsmuenster, Germany) using only the 60 inner wells to avoid variations in the culture conditions in the outer wells. Cells were seeded ata density of 10,000 cells per well 24 hours prior to infection. SPE fractions for the biological replicates C26, C14 and D5, were tested in a serial 1:2-dilution with a maximum of 3% methanol or approximately 75 μg/ml for the S. carteri fraction 1 mixture on the EASY-HIT assay [11]. For the HPLC fractions, SPE fraction 1 HPLC fractions 1-11, were tested on the EASY-HIT assay for biological replicates C26, C14 and D5. The authentic samples of HD, DBH, and oroidin were screened at 3.1 μM, 6.25 μM, 12.5 μM, 25 μM, and 50 μM. All samples were tested in triplicates. After compound addition, LC5-RIC cells were infected by adding 20 μl of HIV-1 inoculum (approx. 28.8 ng of p24 for HIV-1LAI derived from HEK 293T cells) to each well of the plate. Cells were incubated at standard cell culture conditions for 48 hours after infection and were subsequently assayed for reporter expression and cell viability.
(§2) Reporter expression was determined by measuring the total fluorescent signal intensity of each culture with a fluorescence microplate reader (Fluoroskan Ascent; ThermoFisher, Schwerte, Germany) at an excitation filter wavelength of 544 nm and an emission filter wavelength of 590 nm or with a Tecan infinite M200 (Tecan, Crailsheim, Germany) at the monochromator wavelengths 552 nm for excitation and 596 for emission. Statistical significances were determined using one-way ANOVA.

[2] = target: T1, HIV-1 reverse transcriptase (Human immunodeficiency virus type 1 group M subtype B, UniProt P04585); test: HIV-1 reverse transcriptase biochemical assay (EnzChek); conditions: for anti-HIV-1 RT activity (in words): screened at 3.1-100 μM
T1 construct: The reverse transcriptase is a heterodimer with the p66 and the p51 subunits; purchased Calbiochem, Merck-Millipore
Protocol: The HIV-1 reverse transcriptase inhibition assay was carried out using the commercial kit EnzChek® Reverse Transcriptase Assay (Invitrogen, San Jose, Calif., USA). The reverse transcriptase is a heterodimer with the p66 and the p51 subunits with RNase H activity located in the last 15 KDa of the p66 HIV Reverse transcriptase (Calbiochem, Merck-Millipore). Polymerase activity was assessed by its ability to produce RNA-DNA heteroduplexes from a mixture of a long poly (A) template, an oligo dT primer and dTTP which is then detected by PicoGreen® dsDNA quantitation reagent. The single compound and controls were performed in triplicated in a 384-well plate format, each with a total reaction mixture of 50 μL. To begin, the poly (A) template was annealed to the oligo dT primer for one hour, then diluted 200 fold in polymerization buffer. Reverse transcriptase (1.2 μl) was added per 300 reactions. This mixture was kept on ice and aliquoted to each well with test compounds. The reaction was incubated at room temperature for one hour and then 2 μl of […] EDTA was added to stop the reaction. The RNA-DNA heteroduplex was labeled with PicoGreen and incubated for 5 minutes and then detected with the use of a SpectraMax® Paradigm® Multi-mode Microplate Detection Platform (Molecular Devices, Sunnyvale, Calif., USA) by scanning at 480 nm excitation wavelength and 520 nm emission wavelength. […] Statistical significances were determined using a one-way ANOVA.

[3] = test system: LC5-RIC cells; test: MTT cell proliferation (vitality) assay of infected LC5-RIC cells; format: cell-based; conditions: for concentrations at which cytotoxicity was observed / cytotoxicity (in words): LC5-RIC cells; for cytotoxicity (in words): tested concentrations 3.1-50 μM
Protocol: The colorimetric assay […] was used in order to assess the viability and activity of LC5-RIC cells exposed to the unknown sponge mixtures, SPE fraction 1 and HPLC fractions 1-11, for three biological replicates. This cell vitality assay provides a visualization of the process where mitochondrial enzymes reduce the yellow MTT to purple formazan (ATCC, MTT cell proliferation assay). After reading the HIV reporter expression, cultures were incubated with 100 μl of MTT solution (0.5 mg of […]; Sigma, Taufkirchen, Germany) in 100 μl of culture medium for 2 hours. MTT solution was removed and 100 μl of lysis solution (10% [wt/vol] SDS and 0.6% [vol/vol] acetic acid in dimethyl sulfoxide [DMSO]) was added. The formazan concentrations of the test compounds and the uninfected control cultures were determined by an ELISA plate reader (Tecan Infinite M200, Tecan Germany GmbH, Crailsheim) and scanned with a test wavelength of 570 nm and a reference wavelength of 630 nm.

[4] = vendor data, Enzo Life Sciences, cited from earlier work
[5] = test system: HIV-1
Protocol: as §1, §2

[6] = test system: HIV; conditions: concentrations not detailed; cited from earlier work

Compound	IC50 [1] [µM]	anti-HIV-1 RT activity (in words) [2]	effect on cell vitality ([3]; 3.1 μM)	concentrations at which cytotoxicity was observed [3]	cytotoxicity (in words) [3]	solubility in DMSO ([4]; DMSO) [µg/mL]	HIV infection, % of untreated controls ([5]; 3.1 μM) [%]	inhibition of HIV-1 replication (in words) ([5]; EASY-HIT, LC5-RIC cells)	ability to inhibit HIV replication, previous study [6]	inhibition of HIV-1 reverse transcriptase activity ([2]; 25 μM)	inhibition of the HIV-1 RT enzyme ([2]; concentrations greater than 25 μM) [%]	cytotoxicity (in words) ([3]; listed as Oroidin)	HIV-1 infection, % of untreated controls ([5]; 50 μM) [%]	reduction of HIV-1 replication ([5]; 50 μM)	inhibition of HIV-1 replication (in words) ([5]; EASY-HIT, LC5-RIC cells, listed as Oroidin)	IC50 ([5]; read-out: concentration giving 50% inhibition of HIV-1 (viral replication), EASY-HIT, LC5-RIC cells, purchased pure compounds) [µM]	effect on cell vitality ([3]; 13 μM)	solubility (in words) [4]	HIV-1 infection, % of untreated controls ([5]; 13 μM) [%]
NC1=NC(=O)/C(=C2\CCNC(=O)c3[nH]c(Br)cc32)N1 [HD, 10Z-Hymenialdisine]	13	did not show anti-HIV-1 RT activity; also recorded: do not affect this enzyme	without affecting cell vitality	greater than 3.1 μM	exhibited cytotoxicity	5000 (≈ 15.4 mM)	< 40	capable of inhibiting HIV-1 replication											
Nc1ncc(/C=C/CNC(=O)c2cc(Br)c(Br)[nH]2)[nH]1 [oroidin]		directly acting to inhibit the retroviral reverse transcriptase			non-cytotoxic at all tested concentrations; also recorded: without causing cytotoxicity; also recorded: no associated toxicity			capable of inhibiting HIV-1 replication	inactive	up to 90%	90	nontoxic for cells at all tested concentrations	50	up to 50%	weakest antiviral activity	50			
NC1=NC(=O)/C(=C2\CCNC(=O)c3[nH]ccc32)N1 [DBH, 4-(2-Amino-4-oxo-2-imidazolin-5-ylidene)-4,5,6,7-tetrahydropyrrolo[2,3-c]azepin-8-one]	7	did not show anti-HIV-1 RT activity; also recorded: do not affect this enzyme		greater than 13 μM	exhibited cytotoxicity												without affecting cell vitality	Soluble in 100% ethanol or DMSO	30
